Key:
rice = experiment: Test B pre-/postemergence herbicide test; assay type: in vivo, Oryza sativa; conditions: for Rice plant response rating: Preemergence, scale 0 to 100
Method in brief: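 Seeds were planted and treated preemergence with compounds formulated in a non-phytotoxic solvent mixture containing surfactant, while plants at the 1- to 4-leaf stage (2 to 18 cm) received postemergence sprays. Flooded paddy plants were grown to the 2-leaf stage. After 13 to 15 days in a greenhouse, injury was visually rated 0–100 against untreated controls.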

morningglory = experiment: Test C pre-/postemergence herbicide test; assay type: in vivo, Ipomoea coccinea; design: key to Plant response rating, Morningglory: 0 = no effect, 100 = complete control; conditions: for Morningglory plant response rating: Preemergence
Description: Seeds of plant species selected from bermudagrass (Cynodon dactylon (L.) Pers.), Surinam grass (Urochloa decumbens (Staph) R. D. Webster, previously named Brachiaria decumbens Stapf), cocklebur (Xanthium strumarium L.), corn (Zea mays L.), large crabgrass (Digitaria sanguinalis (L.) Scop.), woolly cupgrass (Eriochloa villosa (Thunb.) Kunth), giant foxtail (Setaria faberi Herrm.), goosegrass (Eleusine indica (L.) Gaertn.), johnsongrass (Sorghum halepense (L.) Pers.), kochia (Kochia scoparia (L.) Schrad.), lambsquarters (Chenopodium album L.), morningglory (Ipomoea coccinea L.), eastern black nightshade (Solanum ptycanthum Dunal), yellow nutsedge (Cyperus esculentus L.), pigweed (Amaranthus retroflexus L.), common ragweed (Ambrosia elatior L.), soybean (Glycine max (L.) Merr.), common (oilseed) sunflower (Helianthus annuus L.) and velvetleaf (Abutilon theophrasti Medik.) were planted and treated preemergence with test chemicals formulated in a non-phytotoxic solvent mixture which included a surfactant.
At the same time, plants selected from these crop and weed species and also winter barley (Hordeum vulgare L.), blackgrass (Alopecurus myosuroides Huds.), canarygrass (Phalaris minor Retz.), chickweed (Stellaria media (L.) Vill.), downy bromegrass (Bromus tectorum L.), green foxtail (Setaria viridis (L.) Beauv.), Italian ryegrass (Lolium multiflorum Lam.), wheat (Triticum aestivum L.), wild oat (Avenafatua L.) and windgrass (Apera spica-venti (L.) Beauv.) were treated with postemergence applications of some of the test chemicals formulated in the same manner. Plants ranged in height from 2 to 18 cm (1- to 4-leaf stage) for postemergence treatments. Plant species in the flooded paddy test consisted of rice (Oryza sativa), smallflower umbrella sedge (Cyperus difformis L.), ducksalad (Heteranthera limosa (Sw.) Willd.) and barnyardgrass (Echinochloa crus-galli (L.) Beauv.) grown to the 2-leaf stage for testing. Treated plants and controls were maintained in a greenhouse for 12 to 14 days, after which time all species were compared to controls and visually evaluated. Plant response ratings, summarized in Table C, are based on a scale of 0 to 100 where 0 is no effect and 100 is complete control. A dash (-) response means no test result.

[1] = 125 g ai/ha, 0 = no effect, 100 = complete control, preemergence
[2] = 500 g ai/ha, visual rating, 0 = no effect, 100 = complete control, preemergence
[3] = 62 g ai/ha, preemergence, scale 0 to 100
[4] = 125 g ai/ha, scale 0 (no effect) to 100 (complete control), visual, 12 to 14 days, preemergence
[5] = 250 g ai/ha, scale 0-100, preemergence
[6] = 500 g ai/ha, scale 0 to 100 (0 no effect, 100 complete control), visual, 12 to 14 days, preemergence
[7] = preemergence, 125 g ai/ha, 0 to 100 scale, 0 is no effect, 100 is complete control
[8] = 250 g ai/ha, scale 0 to 100 (0 no effect, 100 complete control), visual, 12 to 14 days, preemergence
[9] = 500 g ai/ha, scale 0 to 100, 0 no effect, 100 complete control
[10] = 500 g ai/ha, visual rating 0-100, 0 no effect, 100 complete control, preemergence

Structure (SMILES): CCNC(=O)c1ccc(F)c(NC(=O)C2CC(C(C)(C)C)=NN2CC)c1 (racemic) [Compound 269]
- Rice plant response rating (0 to 100 scale) (rice; [1]): 70
- Plant response rating, Rice (rice; [2]): 90
- Plant response rating, Morningglory (morningglory; [3]): 0
- Plant response rating, Morningglory (morningglory; [4]): 5
- Plant response rating, Morningglory (morningglory; [5]): 10
- Plant response rating, Morningglory (morningglory; [6]): 40

Structure (SMILES): CCN1N=C(C(C)(C)C)CC1C(=O)Nc1cc(C(=O)N2CC=CC2)ccc1F (racemic) [Compound 310]
- Rice plant response rating (0 to 100 scale) (rice; [1]): 40
- Plant response rating, Rice (rice; [2]): 80
- Plant response rating, Morningglory (morningglory; [3]): 0
- Plant response rating, Morningglory (morningglory; [4]): 5
- Plant response rating, Morningglory (morningglory; [5]): 5
- Plant response rating, Morningglory (morningglory; [6]): 10

Structure (SMILES): CCn1nc(C(C)(C)C)cc1C(=O)Nc1cccc(C(=O)NC(C)C)c1 [Compound 51]
- Rice plant response rating (rice; 500 g ai/ha): 50
- Plant response rating, Rice (rice; [7]): 0

Structure (SMILES): C=CCn1nc(C(C)(C)C)cc1C(=O)Nc1cccc(C(=O)NCC)c1 [Compound 56]
- Rice plant response rating (rice; 500 g ai/ha): 70
- Plant response rating, Rice (rice; [7]): 40
- Plant response rating (0 = no effect, 100 = complete control), Morningglory (morningglory; 62 g ai/ha, preemergence): 0
- Plant response rating, Morningglory (morningglory; [4]): 0
- Plant response rating, Morningglory (morningglory; [8]): 55
- Morningglory plant response rating (morningglory; [9]): 55

Structure (SMILES): CCn1nc(C(C)(C)C)cc1C(=O)Nc1cccc(C(=O)NCC(C)C)c1 [Compound 61]
- Plant response rating, Rice (rice; [7]): 0
- Plant response rating (0 = no effect, 100 = complete control), Morningglory (morningglory; 62 g ai/ha, preemergence): 0
- Plant response rating, Morningglory (morningglory; [4]): 0
- Plant response rating, Morningglory (morningglory; [8]): 5
- Morningglory plant response rating (morningglory; [9]): 100

Structure (SMILES): CCn1nc(C(C)(C)C)cc1C(=O)Nc1cccc(C(=O)NCC2CC2)c1 [Compound 62]
- Plant response rating, Rice (rice; [7]): 0
- Plant response rating, Morningglory (morningglory; [4]): 0
- Plant response rating, Morningglory (morningglory; [8]): 10

Structure (SMILES): CCN1CCc2c(NC(=O)c3cc(C(C)(C)C)nn3CC)cccc2C1=O [Compound 63]
- Plant response rating, Rice (rice; [7]): 50
- Plant response rating (0 = no effect, 100 = complete control), Morningglory (morningglory; 62 g ai/ha, preemergence): 0
- Plant response rating, Morningglory (morningglory; [4]): 40
- Plant response rating, Morningglory (morningglory; [8]): 40
- Morningglory plant response rating (morningglory; [9]): 40

Structure (SMILES): CCOC(=O)c1cc(NC(=O)c2cc(C(C)(C)C)nn2CC)ccc1OCC [Compound 95]
- Plant response rating, Rice (rice; [10]): 50
- Plant response rating, Rice (rice; [7]): 30
- Plant response rating, Morningglory (morningglory; 31 g ai/ha, preemergence, scale 0 to 100): 0
- Plant response rating (0 = no effect, 100 = complete control), Morningglory (morningglory; 62 g ai/ha, preemergence): 5
- Plant response rating, Morningglory (morningglory; [4]): 10

Structure (SMILES): CCn1nc(C(C)(C)C)cc1C(=O)Nc1cccc(C(C)=O)c1 [Compound 122]
- Plant response rating, Rice (rice; [7]): 20

Structure (SMILES): CC(=O)c1cccc(NC(=O)c2cc(C(C)(C)C)nn2CCF)c1 [Compound 128]
- Plant response rating (0 = no effect, 100 = complete control), Morningglory (morningglory; 62 g ai/ha, preemergence): 30
- Plant response rating, Morningglory (morningglory; [4]): 30

Structure (SMILES): CCOc1cccc(NC(=O)c2cc(C(C)(C)C)nn2CC)c1 [Compound 136]
- Plant response rating, Rice (rice; [10]): 50

Structure (SMILES): CCCCOc1cccc(NC(=O)c2cc(C(C)(C)C)nn2CC)c1 [Compound 137]
- Plant response rating, Rice (rice; [10]): 10
- Plant response rating (0 = no effect, 100 = complete control), Morningglory (morningglory; 62 g ai/ha, preemergence): 0
- Plant response rating, Morningglory (morningglory; [4]): 0
- Morningglory plant response rating (morningglory; [9]): 60

Structure (SMILES): CCn1nc(C(C)(C)C)cc1C(=O)Nc1cccc(OCCCF)c1 [Compound 138]
- Plant response rating, Rice (rice; [10]): 40

Structure (SMILES): CCN(CC)C(=O)c1ccnc(NC(=O)c2cc(C(C)(C)C)nn2CC)c1 [Compound 153]
- Plant response rating, Rice (rice; [10]): 20
- Plant response rating, Rice (rice; [7]): 10
- Plant response rating, Morningglory (morningglory; [3]): 0
- Plant response rating, Morningglory (morningglory; [4]): 0
- Morningglory plant response rating (morningglory; [9]): 15

Structure (SMILES): CCn1nc(C(C)(C)C)cc1C(=O)Nc1cc(C(=O)NCC2CC2)ccn1 [Compound 155]
- Plant response rating, Rice (rice; [10]): 50
- Plant response rating, Rice (rice; [7]): 20

Structure (SMILES): CCN(CC)C(=O)c1cccc(NC(=O)c2sc(C(C)(C)C)nc2C)c1 [Compound 199]
- Rice plant response rating (0 to 100 scale) (rice; [1]): 0
- Plant response rating, Rice (rice; [10]): 20
- Plant response rating, Morningglory (morningglory; [4]): 50
- Plant response rating, Morningglory (morningglory; [5]): 70
- Morningglory plant response rating (morningglory; [9]): 70

Structure (SMILES): CCc1nc(C(C)(C)C)sc1C(=O)Nc1cccc(C(=O)N(CC)CC)c1 [Compound 205]
- Rice plant response rating (0 to 100 scale) (rice; [1]): 10
- Plant response rating, Rice (rice; [10]): 70
- Plant response rating, Morningglory (morningglory; [3]): 0
- Plant response rating, Morningglory (morningglory; [4]): 0
- Plant response rating, Morningglory (morningglory; [5]): 10
- Morningglory plant response rating (morningglory; [9]): 50

Structure (SMILES): CCc1nc(C(C)(C)C)sc1C(=O)Nc1cccc(C(=O)NCCF)c1 [Compound 209]
- Rice plant response rating (0 to 100 scale) (rice; [1]): 30
- Plant response rating, Rice (rice; [10]): 70

Structure (SMILES): CCc1nc(C(C)(C)C)sc1C(=O)Nc1cccc(C(=O)NC(C)(C)C)n1 [Compound 216]
- Rice plant response rating (0 to 100 scale) (rice; [1]): 0
- Plant response rating, Rice (rice; [2]): 70

Structure (SMILES): CCN(CC)C(=O)c1cncc(NC(=O)c2cc(C(C)(C)C)nn2CC)c1 [Compound 261, 5-[[[3-(1,1-dimethylethyl)-1-ethyl-1H-pyrazol-5-yl]carbonyl]amino]-N,N-diethyl-3-pyridinecarboxamide]
- plant injury at 125 g/ha (rice; Oryza sativa, pre-emergence, 336 h, 125 g ai/ha, 0 = no effect, 100 = complete control, read-out: Rice plant response rating (0 to 100 scale)): 0%
- plant injury at 500 g/ha (rice; Oryza sativa, pre-emergence, 336 h, 500 g ai/ha, visual rating, 0 = no effect, 100 = complete control, read-out: Plant response rating, Rice): 60%

Structure (SMILES): CCNC(=O)c1ccc(F)c(NC(=O)c2cc(C(C)(C)C)nn2CC)n1 [Compound 278]
- Rice plant response rating (0 to 100 scale) (rice; [1]): 30
- Plant response rating, Rice (rice; [2]): 80

Structure (SMILES): CCn1nc(C(C)(C)C)cc1C(=O)Nc1nc(C(=O)N2CC=CC2)ccc1F [Compound 281]
- Rice plant response rating (0 to 100 scale) (rice; [1]): 20
- Plant response rating, Rice (rice; [2]): 60

Structure (SMILES): C#CCNC(=O)c1cc(NC(=O)c2cc(C(C)(C)C)nn2CC)ccn1 [Compound 283]
- Rice plant response rating (0 to 100 scale) (rice; [1]): 0
- Plant response rating, Rice (rice; [2]): 0

Structure (SMILES): CCn1nc(C(C)(C)C)cc1C(=O)Nc1cncc(C(=O)N2CC=CC2)n1 [Compound 290]
- Rice plant response rating (0 to 100 scale) (rice; [1]): 0
- Plant response rating, Rice (rice; [2]): 80

Structure (SMILES): C#CCNC(=O)c1cccc(NC(=O)c2sc(C(C)(C)C)nc2CC)c1 [Compound 319]
- Plant response rating (0 to 100 scale), Rice (rice; 125 g ai/ha, 0 is no effect, 100 is complete control, preemergence): 30
- Plant response rating, Rice (rice; [2]): 70

Structure (SMILES): CCn1nc(C(C)(C)C)cc1C(=O)Nc1cc(OC(F)(F)F)ccc1F [Compound 338]
- Plant response rating, Morningglory (morningglory; Postemergence, 250 g ai/ha, scale 0 to 100, 0 no effect, 100 complete control): 40
- Plant response rating, Morningglory (morningglory; Postemergence, 500 g ai/ha, scale 0 to 100, 0 no effect, 100 complete control): 50
- Plant response rating, Morningglory (morningglory; postemergence, 125 g ai/ha, scale 0 to 100): 0
- Plant response rating, Morningglory (morningglory; postemergence, 62 g ai/ha, scale 0 to 100): 0

Structure (SMILES): C=CCNC(=O)c1cccc(NC(=O)c2nn(C(C)C)nc2CC)c1 [Compound 382]
- Plant response rating, Morningglory (morningglory; [3]): 0
- Plant response rating (0 = no effect, 100 = complete control), Morningglory (morningglory; 125 g ai/ha, preemergence): 25
- Plant response rating, Morningglory (morningglory; [5]): 65
- Plant response rating, Morningglory (morningglory; [6]): 100

Structure (SMILES): CCc1nn(C(C)C)nc1C(=O)Nc1cccc(C(=S)N(C)C)c1 [Compound 409]
- Plant response rating, Morningglory (morningglory; [3]): 10
- Plant response rating (0 = no effect, 100 = complete control), Morningglory (morningglory; 125 g ai/ha, preemergence): 40
- Plant response rating, Morningglory (morningglory; [6]): 100

Structure (SMILES): Cc1nn(C(C)(C)C)nc1C(=O)Nc1cccc(C(=S)N(C)C)c1 [Compound 419]
- Plant response rating, Morningglory (morningglory; [3]): 15
- Plant response rating (0 = no effect, 100 = complete control), Morningglory (morningglory; 125 g ai/ha, preemergence): 25
- Plant response rating, Morningglory (morningglory; [6]): 100

Structure (SMILES): CCNC(=S)c1cccc(NC(=O)c2nn(C(C)(C)C)nc2C)c1 [Compound 420]
- Plant response rating, Morningglory (morningglory; [3]): 10
- Plant response rating (0 = no effect, 100 = complete control), Morningglory (morningglory; 125 g ai/ha, preemergence): 55
- Plant response rating, Morningglory (morningglory; [6]): 100

Source: patent publication US20060069132A1, “Azolecarboxamide herbicides” (priority 2004, published 2006)
